Patent publication US20020090619A1, “Methods for identifying mitochondrial divalent cation transporters” (priority 2000, published 2002)

Assays:
yeast mitochondria = assay: Membrane potential ΔΨ of isolated yeast mitochondria (safranin O); type: biochemical, Saccharomyces cerevisiae; conditions: BSA absent
Description: The yeast strain W303-1A (Saccharomyces cerevisiae) was grown aerobically at 30° C. in a medium containing 2% lactate, 1% yeast extract, 2% peptone, 0.05% dextrose, and 0.01% adenine at pH 5.0, and cells were harvested during the logarithmic phase (A600=1.8−2.2). Mitochondria were isolated from spheroplasts as previously described (Jung et al., 1997 J. Biol. Chem. 272:21104), except that 0.6 M sucrose was used in the homogenization medium instead of 0.6 M mannitol (Daum et al., 1982 J. Biol. Chem. 257:13028). The resulting preparations were maintained on ice and were suspended in 0.6 M mannitol 20 mM HEPES (K+) (pH 6.8), containing 0.75 mg/ml BSA and 0.1 mM EGTA. Protein concentration was determined by a reduced volume Biuret method in which 50 μl of the final preparation were solubilized by adding an equal volume of 10% deoxycholate (Na+), with 0.4 ml of Biuret reagent added to the resulting mixture. BSA was employed as the standard.
Unless otherwise noted, mitochondria were incubated at 1 mg protein/ml and at approximately 25° C. in a medium that contained 0.6 M mannitol, 10 mM Pi (K+), 10 mM Hepes (TEA+), pH 7.2, plus 1 mM ethanol as an oxidizable substrate. Compounds having a low solubility in water were added from stock solutions prepared in methanol or DMSO. Ca2+ transport and membrane potential were monitored using the indicating dyes antipyrylazo III (ΔA720-790) and safranin O (ΔA511-533), respectively (Akerman et al., 1976 FEBS Lett. 68:191; Scarpa et al., 1978 Biochem. 17:1378). An SLM Aminco DW-2C spectrophotometer operated in the dual wavelength mode was employed for these purposes. The same instrument, operated in split beam mode, was used to monitor mitochondrial swelling as a decrease in apparent absorbance of mitochondrial suspensions at 540 nm. Oxygen consumption data were obtained using a Clark-type electrode in parallel experiments. Atomic absorption spectroscopy was utilized to monitor the transport of other cations by yeast mitochondria. Briefly, samples were taken at appropriate times and the mitochondria were rapidly sedimented in a microcentrifuge. After carefully removing supernatants, the pellets were solubilized with 2 N percholoric acid (overnight) and centrifuged a second time. The resulting supernatants were diluted with an appropriate volume of distilled water and the concentration of the cation in question was subsequently determined.

intact yeast = assay: Aequorin luminescence in intact yeast cells expressing mitochondrially targeted aequorin; type: cell-based, Saccharomyces cerevisiae
Description: Yeast cells (strain X4003-5B; leu2, ade1, his4, met2, ura3, trp5, gal1) obtained from the Yeast Genetic Stock Center (Berkeley, Calif.) were transformed with the pYES2 plasmid, encoding the human mitochondrially targeted apoaequorin fragment, using the lithium acetate method (Sambrook et al., 1989), and INVSc1 cells were transformed with the pGK plasmid encoding the yeast mitochondrially targeted apoaequorin fragment. Selection was carried out on plates prepared with synthetic complete medium minus uracil (SC-U) (Sherman, 1991 Meths. Enzymol. 194:3). Transformed colonies were cultured in a small volume of SC-U and assayed for aequorin activity in vitro as described by Nakajima et al. (1991 Proc. Nat. Acad. Sci. USA 88:6878). Briefly, the cells were harvested by centrifugation, resuspended in lysis buffer (50 mM Tris, 2 mM EDTA, 0.5 mM PMSF, pH 8 w/NaOH), disrupted by vortexing with glass beads, and then treated with 0.1% Triton X-100 to release apoaequorin from the mitochondria. Following centrifugation, 200 μl aliquots of the supernatants were incubated with coelenterazine (2.5 μM) and 2-mercaptoethanol (2 μl), for ˜3 hr while standing on ice, to form the luminescent aequorin from its apoprotein. The coelenterazine cofactor is highly hydrophobic and readily permeates yeast cell membranes (Nakajima et al., 1991) such that reconstitution was conducted without disrupting the cells in some cases. 2-mercaptoethanol was omitted when intact cells were employed. A transformant which yielded high luminescence (named X4003-5B-AEQmito1) was selected for further characterization.
For preculture, the transformant was inoculated into 50 ml of SC-U plus 2% glucose, and incubated in an air shaker at 180 rpm and 30° C. At 24 hr, the preculture was transferred to 500 ml of a medium containing 1% yeast extract, 2% peptone, 2% lactate, 1% galactose, 0.012% adenine, pH 5 w/NaOH, and growth was continued under conditions which were otherwise the same. […]
Luminescence measurements were carried out in 6×50 mm culture tubes, using a total volume of 0.3 ml, and were started by injection of 5-20 μl of mitochondria or cells. […] For each value, the ratio of observed luminescence (L) to the potential luminescence remaining (Lmax) was calculated, and compared to a calibration curve which relates this ratio to the free Ca^2+ concentration. […] The total luminescence available initially (Ltotal) must be known and was determined in separate experiments, wherein a saturating Ca^2+ concentration (20 μM) is employed to discharge the aequorin completely. This value allows Lmax to be calculated at any time, as Ltotal minus the sum of luminescence that already occurred. […]

## O=C(COCC(=O)N(C1CCCCC1)C1CCCCC1)N(C1CCCCC1)C1CCCCC1 [ETH 129]
Yeast mitochondria; CaCl2 plus ionophore, FIG. 11C
  effect on ΔΨ, ionophore together with Ca2+: sustained reduction
Yeast mitochondria; FIG. 11B
  effect on ΔΨ, agent alone: little effect
Intact yeast; 6.5 μM ETH 129, FIG. 19A
  discharge of aequorin in intact cells: discharge of essentially all of the aequorin
Intact yeast; 6.5 μM ETH 129, cells oxidizing ethanol, 14 mM CaCl2, FIG. 20
  rise of mitochondrial Ca2+ concentration in response to ionophore: 6 fold
